Source: patent US7736848B2, “Cellular targets for treatment of retroviral infection” (Fox Chase Cancer Center, priority 2002, dated 2010)

How the values were obtained:
PBMC = settings: at the utilized concentration (4 mM)
HIV-1 integrase = biological target: T1, HIV-1 integrase (Human immunodeficiency virus type 1 group M subtype B, UniProt P04585); assay: In vitro integrase activity, HIV-1 integrase; type: biochemical; settings: up to 10 mM
T1 construct: For HIV-1 integrase, reactions contained 1.0 M HIV IN
Experimental: For HIV-1 integrase, reactions contained […] HIV IN, 1.0 μM U5 21/21 substrate (Katz & Skalka, Ann. Rev. Biochem. 63: 133-173, 1994; Coffin et al., Retroviruses, Cold Spring Harbor Laboratory, 1997) in 22 mM Hepes, pH 7.5, 5.1 mM DTT, 6% glycerol, 6.66% DMSO, 50 mM KCl and 10 mM MnCl2. Conditions were as described for ASV IN, except that the final incubation time was 60 min.

HIV-1 NL4-3 (X4) strain = assay: HIV-1 NL4-3 replication in PBMCs (p24 antigen ELISA); type: cell-based; settings: 4 mM; for drop in HIV-1 p24 antigen levels: 7 days post-infection; for p24 antigen levels vs control: 12 days post-infection; for decrease in HIV-1 p24 antigen vs NL4-3 infected control: day 3 post-infection; for inhibition of NL4-3 growth: p24 at 6 days post-infection
DNA-PK = DNA-PK (Homo sapiens, UniProt P78527); settings: cited from earlier work
ATR kinase = ATR kinase (Homo sapiens, UniProt Q13535); settings: in vitro; read-out: IC50 for ATR kinase inhibition; cited from earlier work
[1] = test system: primary human macrophages; assay: Cytotoxicity in primary human macrophages; settings: conditions of the transduction test
ASV vector [2] = assay: Nuclear import: LTR-LTR circle junctions in ASV-infected HeLa cells; type: cell-based
ASV vector [3] = assay: organism not typed; type: cell-based; settings: HeLa, 24 h, read-out: inhibition of integration (host-viral junction DNA)
HIV-1-based vector [4] = assay: HIV-1 vector transduction of terminally differentiated primary macrophages; type: cell-based; settings: caffeine 24 hrs
Experimental: Human peripheral blood mononuclear cells (PBMC) were isolated by centrifugation in Ficoll-Hypaque (Sigma, St. Louis, Mo., USA) from buffy coats of HIV-1 seronegative individuals. Monocyte-derived macrophages (MDM) were obtained from PBMC by adherence to plastic for 12 hours in DMEM supplemented with 10% human serum (Cellgro, Herndon, Va., USA), washed, and cultured in the same medium in the presence of macrophage colony-stimulating factor (MCSF, 2 ng/ml; Sigma, St. Louis, Mo., USA) for another 7-10 days, allowing cells to differentiate before infection. The medium was replaced twice during the incubation period. The primary cells were kept at 37° C. in a humidified incubator with 5% CO2.

293T cells = assay: Cytotoxicity in 293T cells; settings: conditions of the transduction test
HIV-1-based vector [5] = assay: HIV-1 vector transduction of dividing and nocodazole-arrested 293T cells; type: cell-based
Experimental: To arrest cells in M phase, cells were treated with nocodazole (1 μg/ml) for 24 hrs prior to addition of the virus. Nocodazole was maintained in the cell culture medium during and after infection. Cells were distributed in a 24-well plate at a density of 5×10^4 cells per well and nocodazole was added to a final concentration of 1 μg/ml. […] Two days post-infection, cells were stained using a β-galactosidase assay (Stratagene according to manufacturer's protocol) and blue cells counted.

ATM kinase = ATM kinase (Homo sapiens, UniProt Q13315); settings: in vitro; read-out: IC50 for ATM kinase inhibition; cited from earlier work
Sequence of ATM kinase (Q13315 whole entry): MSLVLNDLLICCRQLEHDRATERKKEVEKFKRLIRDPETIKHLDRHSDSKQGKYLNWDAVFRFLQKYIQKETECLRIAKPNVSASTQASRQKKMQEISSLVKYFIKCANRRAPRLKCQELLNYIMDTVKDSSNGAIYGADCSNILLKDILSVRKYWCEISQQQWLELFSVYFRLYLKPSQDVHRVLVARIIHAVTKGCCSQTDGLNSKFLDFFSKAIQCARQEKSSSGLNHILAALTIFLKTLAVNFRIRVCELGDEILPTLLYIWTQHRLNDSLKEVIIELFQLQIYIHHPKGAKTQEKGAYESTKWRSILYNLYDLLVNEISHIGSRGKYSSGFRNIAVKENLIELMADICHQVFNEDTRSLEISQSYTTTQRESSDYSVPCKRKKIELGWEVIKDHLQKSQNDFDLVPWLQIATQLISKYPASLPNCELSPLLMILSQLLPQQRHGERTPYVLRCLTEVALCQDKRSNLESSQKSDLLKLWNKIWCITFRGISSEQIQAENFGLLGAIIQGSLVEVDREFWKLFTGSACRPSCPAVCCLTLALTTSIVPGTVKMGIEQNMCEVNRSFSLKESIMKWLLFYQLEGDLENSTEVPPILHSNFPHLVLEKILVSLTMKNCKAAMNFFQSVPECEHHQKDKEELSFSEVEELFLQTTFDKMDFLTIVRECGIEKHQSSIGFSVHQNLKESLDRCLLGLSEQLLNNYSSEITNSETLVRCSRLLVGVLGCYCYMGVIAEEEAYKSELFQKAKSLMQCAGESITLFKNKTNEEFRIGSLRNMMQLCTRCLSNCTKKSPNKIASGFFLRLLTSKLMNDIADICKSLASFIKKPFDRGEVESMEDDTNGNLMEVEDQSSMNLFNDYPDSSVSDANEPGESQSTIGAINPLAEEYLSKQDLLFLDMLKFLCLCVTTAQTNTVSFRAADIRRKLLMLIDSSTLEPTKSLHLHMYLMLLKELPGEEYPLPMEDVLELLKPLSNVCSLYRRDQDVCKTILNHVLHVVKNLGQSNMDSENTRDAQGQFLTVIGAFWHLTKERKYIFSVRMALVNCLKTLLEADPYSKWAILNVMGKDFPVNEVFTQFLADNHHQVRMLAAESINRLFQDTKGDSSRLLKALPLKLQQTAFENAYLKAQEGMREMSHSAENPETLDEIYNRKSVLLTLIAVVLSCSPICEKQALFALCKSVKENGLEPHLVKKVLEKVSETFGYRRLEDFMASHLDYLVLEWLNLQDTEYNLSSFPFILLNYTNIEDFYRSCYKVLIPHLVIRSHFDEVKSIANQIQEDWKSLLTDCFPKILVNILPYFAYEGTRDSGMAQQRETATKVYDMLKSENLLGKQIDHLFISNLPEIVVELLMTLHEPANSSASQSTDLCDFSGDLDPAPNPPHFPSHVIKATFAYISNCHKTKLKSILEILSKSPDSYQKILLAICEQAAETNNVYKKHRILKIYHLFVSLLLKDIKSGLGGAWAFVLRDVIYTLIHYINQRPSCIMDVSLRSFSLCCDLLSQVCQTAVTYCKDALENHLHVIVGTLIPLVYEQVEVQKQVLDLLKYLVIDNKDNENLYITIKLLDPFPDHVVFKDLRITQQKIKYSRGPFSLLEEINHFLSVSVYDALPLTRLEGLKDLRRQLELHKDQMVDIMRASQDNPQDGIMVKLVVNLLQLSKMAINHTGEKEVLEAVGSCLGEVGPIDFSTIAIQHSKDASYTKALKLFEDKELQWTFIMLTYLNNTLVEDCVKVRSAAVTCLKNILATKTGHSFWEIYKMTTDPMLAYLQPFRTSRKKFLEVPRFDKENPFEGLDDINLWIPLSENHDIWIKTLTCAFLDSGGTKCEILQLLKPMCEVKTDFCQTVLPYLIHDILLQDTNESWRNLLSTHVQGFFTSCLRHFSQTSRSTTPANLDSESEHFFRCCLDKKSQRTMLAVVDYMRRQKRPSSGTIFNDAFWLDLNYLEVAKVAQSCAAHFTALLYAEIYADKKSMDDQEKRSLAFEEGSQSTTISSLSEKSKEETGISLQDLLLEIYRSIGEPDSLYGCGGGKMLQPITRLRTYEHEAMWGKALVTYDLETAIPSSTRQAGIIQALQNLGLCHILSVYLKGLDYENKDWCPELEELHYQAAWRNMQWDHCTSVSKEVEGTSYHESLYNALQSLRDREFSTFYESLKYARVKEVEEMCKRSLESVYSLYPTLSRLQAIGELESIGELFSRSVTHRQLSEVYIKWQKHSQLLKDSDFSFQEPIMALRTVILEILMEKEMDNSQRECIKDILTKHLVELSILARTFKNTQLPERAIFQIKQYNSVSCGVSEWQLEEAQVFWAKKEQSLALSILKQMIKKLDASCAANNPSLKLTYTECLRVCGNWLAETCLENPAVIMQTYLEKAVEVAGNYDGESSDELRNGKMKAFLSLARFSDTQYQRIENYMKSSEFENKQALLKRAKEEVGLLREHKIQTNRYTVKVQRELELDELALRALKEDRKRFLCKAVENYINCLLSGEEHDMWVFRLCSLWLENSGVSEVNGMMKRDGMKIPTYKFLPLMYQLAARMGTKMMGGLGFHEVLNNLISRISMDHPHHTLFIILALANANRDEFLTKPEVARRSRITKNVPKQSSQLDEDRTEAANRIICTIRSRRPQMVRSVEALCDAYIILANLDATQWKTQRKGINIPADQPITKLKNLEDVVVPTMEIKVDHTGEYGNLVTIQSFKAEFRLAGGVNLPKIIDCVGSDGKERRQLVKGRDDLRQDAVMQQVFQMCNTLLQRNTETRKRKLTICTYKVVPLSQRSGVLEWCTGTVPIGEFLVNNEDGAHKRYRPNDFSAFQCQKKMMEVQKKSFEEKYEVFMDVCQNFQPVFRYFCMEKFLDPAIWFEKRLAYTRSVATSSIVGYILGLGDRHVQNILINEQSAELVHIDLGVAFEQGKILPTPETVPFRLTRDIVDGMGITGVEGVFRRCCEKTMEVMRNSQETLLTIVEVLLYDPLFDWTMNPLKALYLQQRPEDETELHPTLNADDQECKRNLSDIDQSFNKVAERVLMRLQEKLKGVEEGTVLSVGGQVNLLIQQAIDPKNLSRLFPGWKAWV

ASV-based vector = assay: Stable transduction of HeLa cells by ASV neo vector; type: cell-based; settings: 24 h, read-out: IC50, reduction in number of cells stably transduced by ASV vector
Experimental: (§1) Infection of HeLa Cells. […] The virus-containing medium was then replaced with fresh medium. Two to seven days after infection with the HIV-1 vector (as indicated) cells were stained using a β-galactosidase assay (Stratagene). Cells were selected for G418 resistance one day after infection with the ASV vector by addition of 1 mg/ml G418.
(§2) After infection with ASV, G418 was also added at this time.

HIV-1 strain NL4-3 = assay: 2-LTR DNA junctions (nuclear import) in NL4-3-infected PBMCs; type: cell-based; settings: 24 hours post-infection
Description: To determine if methylxanthines altered the nuclear import of HIV-1 pre-integration complexes (PICs), we analyzed the level of 2-LTR DNA junctions in infected cells by a quantitative DNA-PCR technique. […] To normalize the cell number, the human beta-globin gene was used as a standard (Nunnari et al., 2002, supra; Otero et al., 2003, supra).

mTOR = mTOR (Homo sapiens, UniProt P42345); settings: cited from earlier work
[6] = test system: neomycin phosphotransferase II; assay: Expression of neo reporter in stably transduced HeLa cells (Western blot); type: cell-based; settings: 24 hr, up to 4 mM caffeine
Experimental: Western Blot Analyses. […] Cells were then harvested, lysed, and lysates were subjected to electrophoresis in a 10% SDS polyacrylamide gel. The separated proteins were then transferred to a PVDF membrane and the filter was treated with neomycin phosphotransferase II antibody (Upstate Biotech). Bands were detected using a chemi-luminiscence assay.

ASV vector [7] = assay: Viral DNA synthesis in ASV-infected HeLa cells (real time PCR); type: cell-based; settings: up to 4 mM; 24 hr post-infection
Experimental: Real Time PCR. Extrachromosomal DNA from infected and uninfected cells was prepared by HIRT extraction. Real-Time PCR amplification, data-acquisition and analysis were preformed with the Cephid Smart Cycler. The Biochemistry and Biotechnology Facility at the Fox Chase Cancer Center prepared the primers using BHQ-1 non-fluorogenic quencher (Biosearch Technologies). Viral sequence primers directed against ASV pol were selected using Primer Express™ (Applied Biosystems) and had the following sequences: Forward primer, 5′-[…]-3′ (SEQ ID NO:1); Reverse primer, 5′-[…]-3′ (SEQ ID NO:2); Probe, 5′-(FAM) CC […] (BHQ)-3′ (SEQ ID NO:3). Results were normalized with those from primers against mitochondrial DNA (Asaad et al., Oncogene 19: 5788-5800, 2000). Each reaction contained 1× Reaction Buffer (20 mM Tris-HCl, pH 8.4), 50 mM KCl), 0.25 mM each dNTP, 2.5 mM MgCl2, 400 nM primers, 200 nM probe and 2.5 U Platinum Taq Polymerase (Invitrogen). Relative quantitation was calculated with the Comparative Cycle Threshold Method using the untreated samples as the reference (User, B. ABI Prism 7700 Sequence Detection System; the Perkin Elmer Corporation, P/N 4303859 Rev. A. Stock No. 77802-001, 1997). […] Relative quantitation was averaged and standard deviations were determined between independent experiments.
Synthesis of viral DNA was detected by quantitative PCR.

HIV-1-based vector [8] = assay: Stable transduction of HeLa cells by HIV-1-lacZ vector; type: cell-based; settings: Human immunodeficiency virus 1, HeLa, read-out: IC50, reduction in number of cells stably transduced by HIV-1 vector
Experimental: as §1, §2
Transduction was measured five to six days later by the presence of β-galactosidase positive colonies.

HIV-1-based vector [9] = assay: Transduction of parental GM847 cells treated with doxycycline; type: cell-based
Description: To examine the role of ATR more directly, the inventors examined the efficiency of retroviral DNA integration and transduction in cells defective in ATR function. […] Cells that synthesize the dominant-negative ATRkd protein (doxycycline-inducible expression) are viable, but show deficiencies in DNA repair that are distinct from those in cells deficient in ATM.
Because ATR was also implicated in the regulation of Vpr-induced G2/M arrest, transduction of ATRkd-expressing cells by the multiply attenuated HIV-1-based vector was also evaluated.

PCNA [10] = assay: PCNA Western blot in nocodazole-treated 293T cells; type: cell-based; settings: nocodazole 1 μg/ml, 24 hrs
Experimental: To determine the efficiency of the nocodazole arrest, cells were assayed for expression of the proliferating-cell nuclear antigen (PCNA) by Western blotting with an anti-PCNA antibody. PCNA accumulates in cells as they enter S phase, but is rapidly degraded in other phases of the cell cycle. (Takase, K et al. Reversible G1 arrest induced by dimethyl sulfoxide in human lymphoid cell lines: kinetics of the arrest and expression of the cell cycle marker proliferating cell nuclear antigen in Raji cells. Cell Growth Differ 1992, 3:515-521).

PCNA [11] = assay: PCNA Western blot in nocodazole-treated GM847/ATRkd cells; type: cell-based, human; settings: nocodazole 1 μg/ml
Experimental: GM847/ATRkd cells were plated at a density of 2×10^4 cells per well of 24-well plate, in the presence or absence of doxycycline (5 μg/ml) and nocodazole (1 μg/ml).
To examine the role of ATR in growth-arrested cells, the GM847/ATRkd cells were treated with nocodazole in addition to doxycycline.

[12] = test system: retroviral transduction of HeLa cells; assay: Retroviral transduction of HeLa cells treated with mTOR inhibitor
Description: To determine if mTOR is involved in retroviral transduction, the inventors infected HeLa cells and treated them with the mTOR-specific inhibitor, rapamycin.

[13] = test system: macrophage-tropic (R5) HIV-1 strain, ADA; assay: HIV-1 ADA replication in PBMCs (p24 antigen); type: cell-based; settings: Human immunodeficiency virus 1, PBMC, p24 at 6 days post-infection
[14] = cited from earlier work
[15] = test system: BRCA1 phosphorylated on serine 1423; assay: BRCA1 serine 1423 phosphorylation in PBMCs (Western blot); type: cell-based, human
Description: (§3) To establish if HIV-1 infection triggers the DNA damage response that is controlled by these kinases, human PBMCs were infected with the HIV-1 NL4-3 strain and analyzed by Western blotting to determine the levels of phosphorylation by ATM and ATR in these cells. Western blotting was sequentially performed with an anti pBRCA1 (Bethyl Laboratories, Montgomery, Tex., cat # A300-008A) or an anti-Ku86 antibody (Santa Cruz, sc-9034, Santa Cruz, Calif.). For detection of the p53 phosphorylated on serine 15 residue, Western blotting was performed with a rabbit polyclonal antibody from Cell Signaling Technology, Beverly, Mass. (cat # 9284S).

[16] = test system: p53 phosphorylated on serine 15; assay: p53 serine 15 phosphorylation in NL4-3-infected PBMCs (Western blot); type: cell-based, human; settings: 24 hrs
Description: as §3

Cn1c(=O)c2c(ncn2C)n(C)c1=O [caffeine, 1,3,7-trimethylxanthine]
cellular cytotoxicity (XTT assay) (PBMC): did not show any significant cellular cytotoxicity
processing activity of HIV-1 integrase (HIV-1 integrase): unaffected
drop in HIV-1 p24 antigen levels (HIV-1 NL4-3 (X4) strain): three
p24 antigen levels vs control (HIV-1 NL4-3 (X4) strain): reached the control level
decrease in HIV-1 p24 antigen vs NL4-3 infected control (HIV-1 NL4-3 (X4) strain): 9 fold
inhibition of NL4-3 growth (HIV-1 NL4-3 (X4) strain): approximately 9 fold
sensitivity of DNA-PK to caffeine (DNA-PK): not sensitive
IC50 (ATR kinase): 1000 to 2000 µM
cytotoxicity [1]: no visible cytotoxicity
formation of circle junctions (ASV vector [2]; 2 mM caffeine): not significantly affected
formation of circle junctions (ASV vector [2]; 4 mM caffeine): only a modest decrease
inhibition at 4000 µM (ASV vector [3]): 88%
transduction of terminally differentiated primary human macrophages (HIV-1-based vector [4]): inhibit
cytotoxicity (293T cells): No caffeine cytotoxicity
transduction by multiply attenuated HIV-1-based vector (lacking vpr, vif, vpu, nef) (HIV-1-based vector [5]; 293T cells, dividing and nocodazole-arrested): inhibited
HIV-transduction of dividing cells (HIV-1-based vector [5]; exponentially dividing 293T cells, caffeine 24 h, dose-dependent): inhibited
HIV-transduction of nocodazole-arrested cells (HIV-1-based vector [5]; nocodazole-arrested 293T cells, caffeine 24 h, dose-dependent): inhibited
IC50 (ATM kinase): 1000 to 2000 µM
IC50 (ASV-based vector): ~800 µM
level of 2-LTR junctions (HIV-1 strain NL4-3): No significant inhibitory effect
inhibition of mTOR in vitro (mTOR): inhibits
amount of reporter protein (neomycin phosphotransferase) [6]: no reduction
effect on amount of viral DNA detected (ASV vector [7]): only a modest effect
IC50 (HIV-1-based vector [8]): ~1500 µM

C[C@H]1c2cccc(O)c2C(=O)C2=C(O)[C@]3(O)C(=O)C(C(N)=O)=C(O)[C@@H](N(C)C)[C@@H]3[C@@H](O)[C@@H]21 [doxycycline]
effect on transduction of parental cells (HIV-1-based vector [9]): no effect

COC(=O)Nc1nc2ccc(C(=O)c3cccs3)cc2[nH]1 [nocodazole]
amount of PCNA relative to exponentially dividing cells (PCNA [10]): ≤ 5%
amount of PCNA relative to exponentially dividing cells (PCNA [11]): 10-20%

CO[C@H]1C[C@@H]2CC[C@@H](C)[C@@](O)(O2)C(=O)C(=O)N2CCCC[C@H]2C(=O)O[C@H]([C@H](C)C[C@@H]2CC[C@@H](O)[C@H](OC)C2)CC(=O)[C@H](C)/C=C(\C)[C@@H](O)[C@@H](OC)C(=O)[C@H](C)C[C@H](C)/C=C/C=C/C=C/1C [rapamycin]
effect on retroviral transduction [12]: no effect

Cn1cnc2c1c(=O)[nH]c(=O)n2C [theobromine, 3,7-dimethylxanthine]
inhibition of NL4-3 growth (HIV-1 NL4-3 (X4) strain): ~2 fold
IC50 [13]: ~100 µM

Cn1c(=O)c2[nH]cnc2n(C)c1=O [theophylline, 1,3-dimethylxanthine]
cellular cytotoxicity (XTT assay) (PBMC): did not show any significant cellular cytotoxicity
drop in HIV-1 p24 antigen levels (HIV-1 NL4-3 (X4) strain): four-fold
p24 antigen levels vs control (HIV-1 NL4-3 (X4) strain): reached the control level
decrease in HIV-1 p24 antigen vs NL4-3 infected control (HIV-1 NL4-3 (X4) strain): 9 fold
inhibition of NL4-3 growth (HIV-1 NL4-3 (X4) strain): ~5 fold
concentration reached in plasma of theophylline-treated patients [14]: 28 to 110 µM
IC50 [13]: ~60 µM
BRCA1 phosphorylation (serine 1423) ([15]; NL4-3-infected PBMCs, 24 hrs): suppressed
basal phosphorylation of BRCA1 on serine 1423 ([15]; PBMCs, basal): failed to suppress
p53 phosphorylation (serine 15) [16]: suppressed
